# In PubChem BioAssay AID1259407 (Chemical Carcinogenesis Research Information System (CCRIS), 2018):
# Calls of active or inactive are those of the source. How the calls were made is not given here.
# Test system: CCRIS mutagenicity, Ames/micronucleus/aberration tests
# Test: CCRIS mutagenicity studies
# [1] = Test System: AMES SALMONELLA TYPHIMURIUM, Strain/Indicator: TA98, Metabolic Activation: NONE, Method: STANDARD PLATE
# [2] = Test System: AMES SALMONELLA TYPHIMURIUM, Strain/Indicator: TA100, Metabolic Activation: NONE, Method: STANDARD PLATE
structure (smiles),measurement,setting,value
O=C([O-])c1cccnc1Nc1cccc(C(F)(F)F)c1.O=C([O-])c1cccnc1Nc1cccc(C(F)(F)F)c1.OCc1cccnc1.OCc1cccnc1.[Cu+2],mutagenic call,"Test System: AMES SALMONELLA TYPHIMURIUM, Strain/Indicator: TA97, Metabolic Activation: MOUSE, LIVER, S-9, Method: STANDARD PLATE",inactive; negative
same,mutagenic call,"Test System: AMES SALMONELLA TYPHIMURIUM, Strain/Indicator: TA97, Metabolic Activation: NONE, Method: STANDARD PLATE",inactive; negative
same,mutagenic call,"Test System: AMES SALMONELLA TYPHIMURIUM, Strain/Indicator: TA97, Metabolic Activation: RAT LIVER S-9, DELOR 103, Method: STANDARD PLATE",inactive; negative
same,mutagenic call,"Test System: AMES SALMONELLA TYPHIMURIUM, Strain/Indicator: TA98, Metabolic Activation: MOUSE, LIVER, S-9, Method: STANDARD PLATE",inactive; negative
same,mutagenic call,[1],inactive; negative
same,mutagenic call,"Test System: AMES SALMONELLA TYPHIMURIUM, Strain/Indicator: TA98, Metabolic Activation: RAT LIVER S-9, DELOR 103, Method: STANDARD PLATE",inactive; negative
same,mutagenic call,"Test System: AMES SALMONELLA TYPHIMURIUM, Strain/Indicator: TA100, Metabolic Activation: MOUSE, LIVER, S-9, Method: STANDARD PLATE",inactive; negative
same,mutagenic call,[2],inactive; negative
same,mutagenic call,"Test System: AMES SALMONELLA TYPHIMURIUM, Strain/Indicator: TA100, Metabolic Activation: RAT LIVER S-9, DELOR 103, Method: STANDARD PLATE",inactive; negative
same,mutagenic call,"Test System: AMES SALMONELLA TYPHIMURIUM, Strain/Indicator: TA102, Metabolic Activation: MOUSE, LIVER, S-9, Method: STANDARD PLATE",inactive; negative
same,mutagenic call,"Test System: AMES SALMONELLA TYPHIMURIUM, Strain/Indicator: TA102, Metabolic Activation: NONE, Method: STANDARD PLATE",inactive; negative
same,mutagenic call,"Test System: AMES SALMONELLA TYPHIMURIUM, Strain/Indicator: TA102, Metabolic Activation: RAT LIVER S-9, DELOR 103, Method: STANDARD PLATE",inactive; negative
Nc1ccn([C@H]2CC[C@@H](CO)O2)c(=O)n1,mutagenic call,"Test System: AMES SALMONELLA TYPHIMURIUM, Strain/Indicator: TA98, Metabolic Activation: HAMSTER, LIVER, S-9, AROCLOR 1254, Method: STANDARD PLATE",inactive; negative
same,mutagenic call,[1],inactive; negative
same,mutagenic call,"Test System: AMES SALMONELLA TYPHIMURIUM, Strain/Indicator: TA98, Metabolic Activation: RAT, LIVER, S-9, AROCLOR 1254, Method: STANDARD PLATE",inactive; negative
same,mutagenic call,"Test System: AMES SALMONELLA TYPHIMURIUM, Strain/Indicator: TA100, Metabolic Activation: HAMSTER, LIVER, S-9, AROCLOR 1254, Method: STANDARD PLATE",inactive; negative
same,mutagenic call,[2],inactive; negative
same,mutagenic call,"Test System: AMES SALMONELLA TYPHIMURIUM, Strain/Indicator: TA100, Metabolic Activation: RAT, LIVER, S-9, AROCLOR 1254, Method: STANDARD PLATE",inactive; negative
same,mutagenic call,"Test System: MOUSE LYMPHOMA, Strain/Indicator: L5178Y (TK+/TK-), Metabolic Activation: NONE, Method: MICROWELL",inactive; negative
same,mutagenic call,"Test System: MOUSE LYMPHOMA, Strain/Indicator: L5178Y (TK+/TK-), Metabolic Activation: NONE, Method: SUSPENSION/PLATE",inactive; negative. reevaluation of results: negative
same,mutagenic call,"Test System: MOUSE LYMPHOMA, Strain/Indicator: L5178Y (TK+/TK-), Metabolic Activation: RAT, LIVER, S-9, AROCLOR 1254, Method: SUSPENSION/PLATE",inactive; negative. reevaluation of results: negative
same,mutagenic call,"Test System: MOUSE LYMPHOMA, Strain/Indicator: L5178Y (TK+/TK-), Metabolic Activation: S-9, Method: MICROWELL",inactive; negative
Nc1ccc(N=Nc2cccc(N)c2N)cc1,mutagenic call,"Test System: AMES SALMONELLA TYPHIMURIUM, Strain/Indicator: TA98, Method: PREINCUBATION",active; positive
same,mutagenic call,"Test System: AMES SALMONELLA TYPHIMURIUM, Strain/Indicator: TA100, Method: PREINCUBATION",active; positive
C=CC1CC2C=CC1C2 (stereo unspecified),mutagenic call,"Test System: AMES SALMONELLA TYPHIMURIUM, Strain/Indicator: TA98, Metabolic Activation: NONE, Method: PREINCUBATION",inactive; negative
same,mutagenic call,"Test System: AMES SALMONELLA TYPHIMURIUM, Strain/Indicator: TA98, Metabolic Activation: RAT LIVER S-9, AROCLOR 1254, Method: PREINCUBATION",inactive; negative
same,mutagenic call,"Test System: AMES SALMONELLA TYPHIMURIUM, Strain/Indicator: TA100, Metabolic Activation: NONE, Method: PREINCUBATION",inactive; negative
same,mutagenic call,"Test System: AMES SALMONELLA TYPHIMURIUM, Strain/Indicator: TA100, Metabolic Activation: RAT LIVER S-9, AROCLOR 1254, Method: PREINCUBATION",inactive; negative
same,mutagenic call,"Test System: AMES SALMONELLA TYPHIMURIUM, Strain/Indicator: TA1535, Metabolic Activation: NONE, Method: PREINCUBATION",inactive; negative
same,mutagenic call,"Test System: AMES SALMONELLA TYPHIMURIUM, Strain/Indicator: TA1535, Metabolic Activation: RAT LIVER S-9, AROCLOR 1254, Method: PREINCUBATION",inactive; negative
same,mutagenic call,"Test System: AMES SALMONELLA TYPHIMURIUM, Strain/Indicator: TA1537, Metabolic Activation: NONE, Method: PREINCUBATION",inactive; negative
same,mutagenic call,"Test System: AMES SALMONELLA TYPHIMURIUM, Strain/Indicator: TA1537, Metabolic Activation: RAT LIVER S-9, AROCLOR 1254, Method: PREINCUBATION",inactive; negative
same,mutagenic call,"Test System: AMES SALMONELLA TYPHIMURIUM, Strain/Indicator: TA1538, Metabolic Activation: NONE, Method: PREINCUBATION",inactive; negative
same,mutagenic call,"Test System: AMES SALMONELLA TYPHIMURIUM, Strain/Indicator: TA1538, Metabolic Activation: RAT LIVER S-9, AROCLOR 1254, Method: PREINCUBATION",inactive; negative
same,mutagenic call,"Test System: CHINESE HAMSTER OVARY, Strain/Indicator: CHO-K1-BH4 (HGPRT)/6-THIOGUANINE, Metabolic Activation: NONE",inactive; negative
same,mutagenic call,"Test System: CHINESE HAMSTER OVARY, Strain/Indicator: CHO-K1-BH4 (HGPRT)/6-THIOGUANINE, Metabolic Activation: RAT LIVER S-9, AROCLOR 1254",inactive; negative
